Test results: patent US6436960B1, “Farnesyl transferase inhibitors having a piperidine structure and process for preparation thereof” (LG Chemical Ltd., priority 1998, dated 2002)

Experiments:
[1] = molecular target: T1, Ras farnesyl transferase (Homo sapiens, UniProt P49354+P49356); experiment: in vitro inhibitory activity for Ras farnesyl transferase, H-Ras substrate; format: biochemical; conditions: recombinant Ras farnesyl transferase, H-Ras substrate, tritium-farnesylpyrophosphate, 30 minutes at 37° C.; read-out: H-Ras IC50
T1 construct: made in house
Method: (§1) In the present experiment, Ras farnesyl transferase produced by genetic recombination techniques according to the improved Pompliano's method (Pompliano et al., Biochemistry, 1992, 31, 3800) was used, and Ras substrate(Ras-CVLS) protein described in Korean Patent Appln. No. 97-14409 was used after it has been purified according to the known method(see, Chung et al., Biochimica et Biophysica Acta, 1992, 278, 1129).
(§2) The enzyme reaction was performed in 50 μl of 50 mM Soduam HEPES buffer solution containing 25 mM of potassium chloride, 25 mM of magnesium chloride, 10 mM of DTT and 50 μM of zinc chloride. 1.5 μM of Ras substrate protein, 0.15 μM of tritium-farnesylpyrophosphate and 4.5 nM of farnesyl transferase were used.
(§3) More specifically, in the initial step, farnesyl transferase was added to the above buffer solution, reaction was maintained for 30 minutes at 37° C. and then the reaction was stopped by adding 1 ml of ethanol solution containing 1M HCl. The formed precipitates were adsorbed to GF/B filter using Hopper harvestor(Hopper #FH 225V) for filter-binding, washed with ethanol, and then radioactivity of the dried filter was measured using LKB β counter. Enzyme titer was measured in the unsaturated state of substrate where the concentrations of Ras substrate protein and farnesyl transferase have quantitative relationship. The compound according to the present invention dissolved in dimethyl sulfoxide(DMSO) was added to the reaction solution in an amount of less than 5% of the total reaction solution, and then the enzyme inhibitory activity thereof was measured. The enzyme inhibitory activity was represented by percentage of the amount of farnesyl incorporated into the Ras substrate protein in the presence of the test compound to that in the absence of the test compound. IC50 of the test compound was defined as the concentration at which 50% of the enzyme activity was inhibited.

[2] = molecular target: T1, Ras farnesyl transferase; experiment: in vitro inhibitory activity for Ras farnesyl transferase, K-Ras substrate; format: biochemical; conditions: recombinant Ras farnesyl transferase, K-Ras substrate; read-out: K-Ras IC50
Method: as §1, with “and Ras substrate(Ras-CVLS) protein described in Korean Patent” left out
as §2, §3

[3] = molecular target: T2, Ras farnesyl transferase (Rattus norvegicus, UniProt Q02293+Q04631); experiment: in vivo (cellular) Ras farnesyl transferase inhibitory activity, Rat2 cells expressing C-Harvey-Ras; format: cell-based; conditions: Rat2 cell line expressing C-Harvey-Ras; concentration inhibiting 50% of farnesyl binding of Ras protein; read-out: H-Ras CIC50
T2 construct: endogenous in cells; host or cells: Rat2 fibroblasts transformed with C-Harvey-Ras, or with H-Ras carrying the K-Ras C-terminal polybasic lysine domain
Method: (§4) In the present experiment, Rat2 cell line which expresses C-Harvey-Ras protein having transforming activity and Rat2 cell line(Korean patent application No. 97-14409) which is transformed with fused protein of H-Ras substituted with polybasic lysine domain at C-terminus of K-Ras were used. The experiment was performed by the modified Declue's method(Declue. J. E. et al., Cancer Research, 1991, 51, 712). Hereinafter, the experimental method will be described in more detail.
(§5) 3×10^5 cells of transformed Rat2 fibroblast cell line were sprayed on 60 mm cell cultivation dish and cultivated for 48 hours in a cell incubator at 37° C. and after 50% or more of density was reached, it was treated with the test compounds. The compound according to the present invention dissolved in dimethylsulfoxide(DMSO) was used. 1% concentration of dimethylsulfoxide was used in both control and test groups. After 4 hours from the treatment with the compound, methionine labeled with 150 μCi of radioactive isotope [^35S] per 1 ml of medium was added and after cultivating for 20 hours, the cells were washed with physiological saline water. The cells were lysed using 1 ml of cold cell lysis buffer solution(50 mM of Sodium HEPES buffer solution containing 5 mM of magnesium chloride, 1 mM of DTT, 1% NP 40, 1 mM of EDTA, 1 mM of PMSF, 2 μM of leupeptin, 2 μM of pepstatin A and 2 μM of antipain) and the supernatant wherein the cells were lysed was obtained by high-velocity centrifugation of 12,000 g×5 minutes. The amount of radioisotope in the supernatant was measured and standardized to obtain a quantitative result in immunoprecipitation reaction and then, Y13-259, a monoclonal antiboby specifically binding to Ras protein(Furth, M. E. et al., J. Virol, 1982, 43, 294) was added and reacted for 15 hours at 4° C. Protein A(combined with goat anti-murine imunoglobulin antibody)-agarose suspension was added to the solution and reacted for 1 hour at 4° C. and then, to remove the unspecific binding product, immunoprecipitates were washed with a buffer solution (50 mM Tris chloride buffer solution containing 50 mM of sodium chloride, 0.5% of sodium dioxycholate, 0.5% of NP 40 and 0.1% of SDS). The precipitates were added to a buffer solution for electrophoresis and boiled and then, electrophoresis was performed using 13.5% of SDS polyacrylamide gel. After electrophoresis, the gel was fixed and dried. Then, the gel was exposed to X-ray film, developed and printed. From the result of the experiment, intensities of band of protein combined with or without farnesyl of Ras protein were measured, and the concentration of the test compound inhibiting 50% of farnesyl binding was defined as CIC50, an in vivo Ras farnesyl transferase inhibitory activity.

[4] = molecular target: T2, Ras farnesyl transferase; experiment: in vivo (cellular) Ras farnesyl transferase inhibitory activity, Rat2 cells transformed with H-Ras fused with polybasic lysine domain of K-Ras; format: cell-based; conditions: Rat2 cell line transformed with H-Ras substituted with polybasic lysine domain at C-terminus of K-Ras; concentration inhibiting 50% of farnesyl binding; read-out: K-Ras CIC50
Method: as §4, §5

Row | IC50 [1] [nM] | IC50 [2] [nM] | IC50 [3] [nM] | IC50 [4] [nM] | SMILES
1 | 1 to 10 | 10 to 1000 | 10 to 100 | 1000 to 50000 | COCCN(C)C(=O)c1cn(Cc2cncn2CC2CCN(C(=O)Cc3ccc(-c4ccccc4)cc3)CC2)cc1-c1cccc2ccccc12 [Compound 16, 1-{1-[1-(4-Biphenylacetyl)-piperidin-4-ylmethyl]-1H-imidazol-5-ylmethyl}-3-[N-(2-methoxyethyl)-N-methyl]carbamoyl-4-(naphthalen-1-yl)-1H-pyrrole]
2 | 1 to 10 | 10 to 1000 | 10 to 100 | 10000 to 100000 | COCCN(C)C(=O)c1cn(Cc2cncn2CC2CCN(C(=O)OC)CC2)cc1-c1cccc2ccccc12 [Compound 17, 1-[1-(1-Methoxycarbonyl-piperidin-4-ylmethyl)-1H-imidazol-5-ylmethyl]-3[N-(2-methoxyethyl)-N-methyl]carbamoyl-4-(naphthalen-1-yl)-1H-pyrrole]
3 | 1 | 10 to 1000 | 10 to 100 | 1000 to 50000 | CCC(=O)N1CCC(Cn2cncc2Cn2cc(C(=O)N(C)CCOC)c(-c3cccc4ccccc34)c2)CC1 [Compound 18, 3-[N-(2-Methoxyethyl)-N-methyl]carbamoyl-4-(naphthalen-1-yl)-1-[1-(1-propionyl-piperidin-4-ylmethyl)-1H-imidazol-5-ylmethyl]-1H-pyrrole]
4 | 7 | 20 | 10 | 1000 to 10000 | COCCN(C)C(=O)c1cn(Cc2cncn2CC2CCN(C(=O)OCc3cccc4ccccc34)CC2)cc1-c1cccc2ccccc12 [Compound 19, 3-[N-(2-Methoxyethyl)-N-methyl]carbamoyl-4-(naphthalen-1-yl)-1-{1-[1-(1-naphthalen-1-ylmethyloxycarbonyl)piperidin-4-ylmethyl]-1H-imidazol-5-ylmethyl}-1H-pyrrole]
5 | 6 | 10 | 10 | 1000 to 10000 | COCCN(C)C(=O)c1cn(Cc2cncn2CC2CCN(C(=O)OCc3ccc4ccccc4c3)CC2)cc1-c1cccc2ccccc12 [Compound 20]
6 | 10 to 100 | 50 | 10 to 100 | 1000 to 10000 | COCCN(C)C(=O)c1cn(Cc2cncn2CC2CCN(C(=O)OC/C=C(\C)CCC=C(C)C)CC2)cc1-c1cccc2ccccc12 [Compound 21]
7 | 9 | 20 | 10 to 100 | 1000 to 10000 | COCCN(C)C(=O)c1cn(Cc2cncn2CC2CCN(C(=O)OCC=C(C)C)CC2)cc1-c1cccc2ccccc12 [Compound 22]
8 | 8 | 20 | 10 to 100 | 1000 to 10000 | COCCN(C)C(=O)c1cn(Cc2cncn2CC2CCN(C(=O)OCCC(C)C)CC2)cc1-c1cccc2ccccc12 [Compound 23]
9 | 6 | 15 | 10 to 100 | 1000 to 10000 | COCCN(C)C(=O)c1cn(Cc2cncn2CC2CCN(C(=O)OCc3ccc(F)cc3)CC2)cc1-c1cccc2ccccc12 [Compound 24]
10 | 6 | 27 | < 100 | 1000 to 10000 | COCCN(C)C(=O)c1cn(Cc2cncn2CC2CCN(C(=O)OC/C=C/c3ccccc3)CC2)cc1-c1cccc2ccccc12 [Compound 25]
11 | 4 | 10 to 100 | 10 to 100 | 10000 to 50000 | COCCN(C)C(=O)c1cn(Cc2cncn2CC2CCN(C(=O)OCc3csc(C(C)C)n3)CC2)cc1-c1cccc2ccccc12 [Compound 26]
12 | 9 | 15 | 10 to 100 | 1000 to 10000 | COCCN(C)C(=O)c1cn(Cc2cncn2CC2CCN(C(=O)c3ccc4ccccc4c3)CC2)cc1-c1cccc2ccccc12 [Compound 27, 3-[N-(2-Methoxyethyl)-N-methyl]carbamoyl-4-(naphthalen-1-yl)-1-{1-[1-(naphthalen-2-ylcarbonyl)piperidin-4-ylmethyl]-1H-imidazol-5-ylmethyl}-1H-pyrrole]
13 | 12 | 8 | 10 to 100 | 1000 to 10000 | COCCN(C)C(=O)c1cn(Cc2cncn2CC2CCN(C(=O)/C=C/c3ccccc3)CC2)cc1-c1cccc2ccccc12 [Compound 28]
14 | 2.5 | 10 to 100 | 10 to 100 | 10000 to 50000 | COCCN(C)C(=O)c1cn(Cc2cncn2CC2CCN(C(=O)c3csc(C(C)C)n3)CC2)cc1-c1cccc2ccccc12 [Compound 29]
15 | 2.5 | 6 | 10 to 100 | 1000 to 10000 | COCCN(C)C(=O)c1cn(Cc2cncn2CC2CCN(C(=O)N(C)Cc3ccccc3)CC2)cc1-c1cccc2ccccc12 [Compound 30]
16 | 4 | 20 | 10 to 100 | 10000 to 50000 | COCCN(C)C(=O)c1cn(Cc2cncn2CC2CCN(C(=O)N3CCCc4ccccc43)CC2)cc1-c1cccc2ccccc12 [Compound 31, 3-[N-(2-Methoxyethyl)-N-methyl]carbamoyl-4-(naphthalen-1-yl)-1-{1-[1-(1,2,3,4-tetrahydroquinolin-1-ylcarbonyl)piperidin-4-ylmethyl]-1H-imidazol-5-ylmethyl}-1H-pyrrole]
17 | 2 | 12 | 10 to 100 | 1000 to 10000 | COCCN(C)C(=O)c1cn(Cc2cncn2CC2CCN(C(=O)N3CCc4ccccc4C3)CC2)cc1-c1cccc2ccccc12 [Compound 32, 3-[N-(2-Methoxyethyl)N-methyl]carbamoyl-4-(naphthalen-1-yl)-1-{1-[1-(1,2,3,4-tetrahydroisoquinolin-2-ylcarbonyl)piperidin-4-ylmethyl]-1H-imidazol-5-ylmethyl}-1H-pyrrole]
18 | 5 | 10 to 100 | 10 to 100 | 1000 to 10000 | COCCN(C)C(=O)c1cn(Cc2cncn2CC2CCN(Cc3ccc(-c4ccccc4)cc3)CC2)cc1-c1cccc2ccccc12 [Compound 33]
19 | 11 | 10 to 100 | 10 to 100 | 1000 to 10000 | COCCN(C)C(=O)c1cn(Cc2cncn2CC2CCN(Cc3ccc(Oc4ccccc4)cc3)CC2)cc1-c1cccc2ccccc12 [Compound 34, 3-[N-(2-Methoxyethyl)-N-methyl]carbamoyl-4-(naphthalen-1-yl)-1-{1-[1-(4-phenoxybenzyl)piperidin-4-ylmethyl]-1H-imidazol-5-ylmethyl}-1H-pyrrole]
